Data published in patent USRE39591E1, “6-O-substituted ketolides having antibacterial activity” (Abbott Laboratories, priority 1996, dated 2007).
Values after ≈ are worked out from the molar mass of the structure shown.

System: up to 32 different microorganisms
Assay: in vitro antibacterial activity (MIC), agar dilution on Brain Heart Infusion (BHI) agar with Steers replicator
Type: cell-based
Conditions: unit assumed
Experimental: Representative compounds of the present invention were assayed in vitro for antibacterial activity as follows: Twelve petri dishes containing successive aqueous dilutions of the test compound mixed with 10 mL of sterilized Brain Heart Infusion (BHI) agar (Difco 0148-01-5) were prepared. Each plate was inoculated with 1:100 (or 1:10 for slow-growing strains, such as Micrococcus and Streptococcus) dilutions of up to 32 different microorganisms, using a Steers replicator block. The inoculated plates were incubated at 35°-37° C. for 20 to 24 hours. In addition, a control plate, using BHI agar containing no test compound, was prepared and incubated at the beginning and end of each test.
An additional plate containing a compound having known susceptibility patterns for the organisms being tested and belonging to the same antibiotic class as the test compound was also prepared and incubated as a further control, as well as to provide test-to-test comparability. Erythromycin A was used for this purpose.
After incubation, each plate was visually inspected. The minimum inhibitory concentration (MIC) was defined as the lowest concentration of drug yielding no growth, a slight haze, or sparsely isolated colonies on the inoculum spot as compared to the growth control.

[1] = Candida albicans CCH 442 (code TT)
[2] = Enterococcus faecism ATCC 8043 (code II)
[3] = Escherichia coli DC-2 (code SS)
[4] = Escherichia coli JUHL (code QQ)
[5] = Haemophilis influenzae DILL AMP R (code WW)
[6] = Micrococcus luteus ATCC 4698 (code PP)
[7] = Micrococcus luteus ATCC 9341 (code OO)
[8] = Mycobacterium smegmatis ATCC 114 (code UU)
[9] = Nocardia Asteroides ATCC9970 (code VV)
[10] = Staphylococcus aureus 1775 (code GG)
[11] = Staphylococcus aureus A5177 (code BB)
[12] = Staphylococcus aureus A-5278 (code CC)
[13] = Staphylococcus aureus ATCC 6538P (code AA)
[14] = Staphylococcus aureus CMX 553 (code FF)
[15] = Staphylococcus aureus CMX 642A (code DD)
[16] = Staphylococcus aureus NCTC10649M (code EE)
[17] = Staphylococcus epidermidis 3519 (code HH)
[18] = Streptococcus Pneumonia 5649 (code ZZA)
[19] = Streptococcus Pneumonia 5979 (code ZZ)
[20] = Streptococcus Pneumonia ATCC6303 (code XX)
[21] = Streptococcus Pneumonia GYR 1171 (code YY)
[22] = Streptococcus agalactiae CMX 508 (code KK)
[23] = Streptococcus bovis A-5169 (code JJ)
[24] = Streptococcus pyogenes 930 (code MM)
[25] = Streptococcus pyogenes EES61 (code LL)
[26] = Streptococcus pyogenes PIU 2548 (code NN)

What does the source list for `CC[C@H]1OC(=O)[C@H](C)C(=O)[C@H](C)[C@@H](O[C@@H]2O[C@H](C)C[C@H](N(C)C)[C@H]2O)[C@@](C)(OCC=Cc2cnc3ccccc3c2)C[C@@H](C)C(=O)[C@H](C)[C@H]2OC(=O)O[C@@]21C` [Example 75, Compound of Formula (IX): L is CO, T is O, R is —CH2CH═CH-(3-quinolyl)]?
MIC [1]: 100 µg/mL; MIC [2]: 0.1 µg/mL; MIC [3]: > 100 µg/mL; MIC [4]: 50 µg/mL; MIC (Escherichia coli SS (code RR)): 0.39 µg/mL; MIC [5]: 2 µg/mL; MIC [6]: 0.2 µg/mL; MIC [7]: 0.02 µg/mL; MIC [8]: 0.39 µg/mL; MIC [9]: 0.05 µg/mL; MIC [10]: > 100 µg/mL; MIC [11]: 0.1 µg/mL; MIC [12]: > 100 µg/mL; MIC [13]: 0.1 µg/mL; MIC [14]: 0.1 µg/mL; MIC [15]: 0.1 µg/mL; MIC [16]: 0.1 µg/mL; MIC [17]: 0.1 µg/mL; MIC [18]: 0.5 µg/mL; MIC [19]: 64 µg/mL; MIC [20]: 0.03 µg/mL; MIC [21]: 0.03 µg/mL; MIC [22]: 0.01 µg/mL; MIC [23]: < 0.005 µg/mL; MIC [24]: 3.1 µg/mL; MIC [25]: 0.02 µg/mL; MIC [26]: 0.1 µg/mL

Which MIC [1] does the source give for `CCC1OC(=O)C(C)C(=O)C(C)C(OC2OC(C)CC(N(C)C)C2O)C(C)(OCC=Cc2cccnc2)CC(C)C(=O)C(C)C2NC(=O)OC12C` (stereo not drawn) [Example 185, R is —CH2CH═CH-(3-pyridyl)] here?
The MIC was greater than 100 µg/mL.

And the MIC [2]?
The MIC was 0.05 µg/mL (≈ 0.0698 µM).

And the MIC [3]?
Its MIC is 100 µg/mL (≈ 140 µM).

And the MIC [4]?
Its MIC is 100 µg/mL (≈ 140 µM).

What about the MIC (Escherichia coli SS (code RR)) of the same compound?
The MIC was 0.39 µg/mL (≈ 0.545 µM).

And the MIC [5]?
The MIC was 1 µg/mL (≈ 1.4 µM).

And the MIC [6]?
The MIC was 0.1 µg/mL (≈ 0.14 µM).

And the MIC [7]?
The MIC was 0.01 µg/mL (≈ 0.014 µM).

And the MIC [8]?
The MIC was 3.1 µg/mL (≈ 4.33 µM).

And the MIC [9]?
The MIC was 0.1 µg/mL (≈ 0.14 µM).

What about the MIC [10] of the same compound?
The MIC was greater than 100 µg/mL.

What about the MIC [11] of the same compound?
The MIC was 0.1 µg/mL (≈ 0.14 µM).

What about the MIC [12] of the same compound?
The MIC was greater than 100 µg/mL.

And the MIC [13]?
Its MIC is 0.1 µg/mL (≈ 0.14 µM).

And the MIC [14]?
The MIC was 0.1 µg/mL (≈ 0.14 µM).

What about the MIC [15] of the same compound?
Its MIC is 0.1 µg/mL (≈ 0.14 µM).

What about the MIC [16] of the same compound?
The MIC was 0.1 µg/mL (≈ 0.14 µM).

What about the MIC [17] of the same compound?
The MIC was 0.1 µg/mL (≈ 0.14 µM).

And the MIC [18]?
Its MIC is 0.5 µg/mL (≈ 0.698 µM).

What about the MIC [19] of the same compound?
The MIC was greater than 128 µg/mL.

What about the MIC [20] of the same compound?
Its MIC is 0.03 µg/mL (≈ 0.0419 µM).

And the MIC [21]?
The MIC was 0.03 µg/mL (≈ 0.0419 µM).

And the MIC [22]?
The MIC was 0.01 µg/mL (≈ 0.014 µM).

And the MIC [23]?
Its MIC is no more than 0.005 µg/mL.

What about the MIC [24] of the same compound?
The MIC was greater than 100 µg/mL.

What about the MIC [25] of the same compound?
The MIC was 0.01 µg/mL (≈ 0.014 µM).

And the MIC [26]?
The MIC was 0.2 µg/mL (≈ 0.279 µM).

`CC[C@H]1OC(=O)[C@H](C)C(=O)[C@H](C)[C@@H](O[C@@H]2O[C@H](C)C[C@H](N(C)C)[C@H]2O)[C@@](C)(OCC#Cc2ccc3ccccc3c2)C[C@@H](C)C(=O)[C@H](C)[C@H]2NC(=O)O[C@@]21C` [Example 251, Compound of Formula (IX): L is CO, T is NH, R is —CH2—C≡C-(2-naphthyl)] was tested. Which MIC (organism code AA) did it give?
The MIC was 0.1 µg/mL.

What about the MIC (organism code BB) of the same compound?
Its MIC is 0.1 µg/mL.

What about the MIC (organism code CC) of the same compound?
Its MIC is greater than 100 µg/mL.

And the MIC (organism code DD)?
The MIC was 0.1 µg/mL.

And the MIC (organism code EE)?
The MIC was 0.1 µg/mL.

What about the MIC (organism code FF) of the same compound?
Its MIC is 0.1 µg/mL.

What about the MIC (organism code GG) of the same compound?
Its MIC is greater than 100 µg/mL.

What about the MIC (organism code HH) of the same compound?
Its MIC is 0.1 µg/mL.

What about the MIC (organism code II) of the same compound?
The MIC was 0.1 µg/mL.

And the MIC (organism code JJ)?
The MIC was 0.02 µg/mL.

And the MIC (organism code KK)?
The MIC was 0.05 µg/mL.

What about the MIC (organism code LL) of the same compound?
Its MIC is 0.05 µg/mL.

And the MIC (organism code MM)?
The MIC was 6.2 µg/mL.

And the MIC (organism code NN)?
Its MIC is 0.2 µg/mL.

And the MIC (organism code OO)?
The MIC was 0.02 µg/mL.

What about the MIC (organism code PP) of the same compound?
Its MIC is 0.2 µg/mL.

What about the MIC (organism code QQ) of the same compound?
The MIC was greater than 100 µg/mL.

And the MIC (organism code RR)?
The MIC was 1.56 µg/mL.

And the MIC (organism code SS)?
Its MIC is greater than 100 µg/mL.

And the MIC (organism code TT)?
Its MIC is greater than 100 µg/mL.

And the MIC (organism code UU)?
Its MIC is 0.2 µg/mL.

And the MIC (organism code VV)?
Its MIC is 0.05 µg/mL.

And the MIC (organism code WW)?
Its MIC is 16 µg/mL.

And the MIC (organism code XX)?
Its MIC is 0.125 µg/mL.

What about the MIC (organism code YY) of the same compound?
The MIC was 0.25 µg/mL.

And the MIC (organism code ZZ)?
Its MIC is greater than 128 µg/mL.

What about the MIC (organism code ZZA) of the same compound?
The MIC was 1 µg/mL.

`CCCO[C@@]1(C)C[C@@H](C)C(=O)[C@H](C)[C@@H](O)[C@](C)(O)[C@@H](CC)OC(=O)[C@H](C)C(=O)[C@H](C)[C@H]1O[C@@H]1O[C@H](C)C[C@H](N(C)C)[C@H]1O` [Example 3, Compound of Formula (VIII): X is O, R is propyl] was tested. Which MIC [1] did it give?
Its MIC is greater than 100 µg/mL.

What about the MIC [2] of the same compound?
The MIC was 25 µg/mL.

And the MIC [3]?
Its MIC is greater than 100 µg/mL.

And the MIC [4]?
The MIC was greater than 100 µg/mL.

And the MIC (Escherichia coli SS (code RR))?
The MIC was 50 µg/mL.

And the MIC [6]?
Its MIC is 100 µg/mL.

And the MIC [7]?
The MIC was 12.5 µg/mL.

And the MIC [8]?
Its MIC is greater than 100 µg/mL.

And the MIC [9]?
Its MIC is 12.5 µg/mL.

What about the MIC [10] of the same compound?
The MIC was greater than 100 µg/mL.

And the MIC [11]?
Its MIC is greater than 100 µg/mL.

What about the MIC [12] of the same compound?
The MIC was greater than 100 µg/mL.

What about the MIC [13] of the same compound?
The MIC was 25 µg/mL.

What about the MIC [14] of the same compound?
Its MIC is 25 µg/mL.

What about the MIC [15] of the same compound?
Its MIC is 100 µg/mL.

And the MIC [16]?
Its MIC is 25 µg/mL.

What about the MIC [17] of the same compound?
Its MIC is 50 µg/mL.

What about the MIC [22] of the same compound?
Its MIC is 25 µg/mL.

What about the MIC [23] of the same compound?
Its MIC is 25 µg/mL.

What about the MIC [24] of the same compound?
Its MIC is greater than 100 µg/mL.

And the MIC [25]?
Its MIC is 100 µg/mL.

What about the MIC [26] of the same compound?
The MIC was 100 µg/mL.

Which results are given for `CCC1OC(=O)C(C)C(=O)C(C)C(OC2OC(C)CC(N(C)C)C2O)C(C)(OCC=Cc2cc3nccnc3cc2[N+](=O)[O-])CC(C)C(=O)C(C)C2NC(=O)OC12C` (stereo not drawn) [Example 200, R is —CH2CH═CH-(7-nitro-6-quinoxalinyl)]?
MIC (organism code AA): 0.1 µg/mL (≈ 0.123 µM); MIC (organism code BB): 0.1 µg/mL (≈ 0.123 µM); MIC (organism code CC): > 100 µg/mL; MIC (organism code DD): 0.1 µg/mL (≈ 0.123 µM); MIC (organism code EE): 0.1 µg/mL (≈ 0.123 µM); MIC (organism code FF): 0.1 µg/mL (≈ 0.123 µM); MIC (organism code GG): > 100 µg/mL; MIC (organism code HH): 0.1 µg/mL (≈ 0.123 µM); MIC (organism code II): 0.02 µg/mL (≈ 0.0246 µM); MIC (organism code JJ): 0.01 µg/mL (≈ 0.0123 µM); MIC (organism code KK): 0.02 µg/mL (≈ 0.0246 µM); MIC (organism code MM): 50 µg/mL (≈ 61.6 µM); MIC (organism code NN): 0.2 µg/mL (≈ 0.246 µM); MIC (organism code OO): 0.01 µg/mL (≈ 0.0123 µM); MIC (organism code PP): 0.2 µg/mL (≈ 0.246 µM); MIC (organism code QQ): 50 µg/mL (≈ 61.6 µM); MIC (organism code RR): 0.39 µg/mL (≈ 0.48 µM); MIC (organism code SS): 12.5 µg/mL (≈ 15.4 µM); MIC (organism code TT): > 100 µg/mL; MIC (organism code UU): 0.78 µg/mL (≈ 0.961 µM); MIC (organism code VV): 0.1 µg/mL (≈ 0.123 µM); MIC (organism code WW): 2 µg/mL (≈ 2.46 µM); MIC (organism code XX): ≤ 0.004 µg/mL; MIC (organism code YY): ≤ 0.004 µg/mL; MIC (organism code ZZ): > 128 µg/mL; MIC (organism code ZZA): 0.25 µg/mL (≈ 0.308 µM)
